Test results published in patent publication US11079398B2, “Method for measurement of peptidic degradation products of a proteolytic cascade in blood samples” (ATTOQUANT DIAGNOSTICS GMBH, priority 2012, dated 2021).

Key:
[1] = tested on: renin-angiotensin system (RAS); assay: RSSE-Fingerprinting: blood incubated at 37° C. with added agents, LC-MS/MS quantification of angiotensin peptides; format: biochemical, human; conditions: for Ang 1-8 steady state equilibrium level compared to control / Ang 1-10 steady state equilibrium level compared to control: heparinised blood, agent added prior to incubation at 37° C., 2 h or 4 h
Procedure: Blood samples were collected and anti-coagulated with standardised heparin tubes (BD). As indicated in FIGS. 3A-3C, plasma separation has been done for the respective samples before the incubation to reach steady state equilibrium.
Following plasma separation by centrifugation at 3000 rcf for 10 minutes at 4° C., […] of plasma was applied onto an activated and equilibrated SEP-PAK™ C18 cartridge. Sample matrix components were removed by washing three times with 1 ml water. Bound analytes were then eluted with 1 ml of methanol. Eluates were evaporated to dryness and reconstituted in 10% acetonitril/90% water supplemented with 0.1% formic acid followed by subjection to LC-MS/MS analysis.
A vacuum manifold has been used for sample processing. • 1. Activation: EtOH abs. • 2. Equilibration: 2×1 ml H2O • 3. Loading: 0.2-1 ml stabilised plasma • 4. Washing: 3×1 ml H2O • 5. Elution: 1 ml MeOH Quantification and Signal Integration
MRM chromatograms were integrated using Analyst 1.5.1 software provided by Applied Biosystems. The threshold for the quantification limit was set at a signal-to-noise ratio of 10. Integration signals not reaching this ratio were set to zero. Analyte signals were related to internal standard signals and concentration was calculated from initially spiked amounts of internal standards.

ACE2 = ACE2 (Homo sapiens, UniProt Q9BYF1); conditions: artificial matrix, vast excess of substrates; cited from earlier work
Sequence of ACE2 (Q9BYF1 18-805): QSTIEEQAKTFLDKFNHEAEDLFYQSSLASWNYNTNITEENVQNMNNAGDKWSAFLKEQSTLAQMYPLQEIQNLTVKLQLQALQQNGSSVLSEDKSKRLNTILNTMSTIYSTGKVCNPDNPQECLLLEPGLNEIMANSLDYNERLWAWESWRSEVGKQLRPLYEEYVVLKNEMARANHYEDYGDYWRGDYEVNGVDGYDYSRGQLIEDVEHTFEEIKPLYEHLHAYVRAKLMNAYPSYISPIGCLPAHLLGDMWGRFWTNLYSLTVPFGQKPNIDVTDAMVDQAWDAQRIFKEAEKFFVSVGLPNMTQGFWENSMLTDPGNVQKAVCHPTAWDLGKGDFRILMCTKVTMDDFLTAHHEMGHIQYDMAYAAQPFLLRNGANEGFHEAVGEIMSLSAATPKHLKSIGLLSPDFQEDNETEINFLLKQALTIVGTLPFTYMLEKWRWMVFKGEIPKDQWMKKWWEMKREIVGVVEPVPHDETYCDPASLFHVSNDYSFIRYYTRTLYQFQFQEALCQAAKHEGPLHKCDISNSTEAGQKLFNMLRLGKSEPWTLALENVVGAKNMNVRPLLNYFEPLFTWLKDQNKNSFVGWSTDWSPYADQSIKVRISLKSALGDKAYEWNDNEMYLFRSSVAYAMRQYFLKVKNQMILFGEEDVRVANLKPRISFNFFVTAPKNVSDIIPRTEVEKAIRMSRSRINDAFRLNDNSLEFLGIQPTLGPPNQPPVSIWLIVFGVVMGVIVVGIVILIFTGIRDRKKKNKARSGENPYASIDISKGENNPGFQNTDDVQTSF

| Molecule | Ang 1-8 steady state equilibrium level compared to control [1] | Ang 1-10 steady state equilibrium level compared to control [1] | also measured |
| --- | --- | --- | --- |
| CC(C)C[C@@H](N)[C@H](O)C(=O)N[C@H](C(=O)N[C@H](C(=O)N[C@@H](CC(=O)O)C(=O)O)C(C)C)C(C)C [Amastatin] | massively increase | – | steady state equilibrium Ang 1-10 level in the presence of ACE2 (ACE2 mediated Ang 1-9 production) ([1]; FIG. 2C1/2C3, 2 h incubation): further increases |
| C[C@H](CS)C(=O)N1CCC[C@H]1C(=O)O [Captopril] | decreased | increased | – |
| NCCCC[C@H](N[C@@H](CCc1ccccc1)C(=O)O)C(=O)N1CCC[C@H]1C(=O)O [Lisinopril] | decreased | increased | – |
| ACE2: recombinant soluble human ACE2 produced by Apeiron Biologics | – | – | shift of RSSE-Fingerprint ([1]; 5 μg/ml enzyme added prior to incubation): shifted as expected |
| angiotensin II (DRVYIHPF; Angiotensin-2; UniProt P01019 25-32, looked up) [Ang 1-8, angiotensin peptide, ACE2 substrate] | – | – | maximal ACE2 conversion rate for Ang 1-8 to Ang 1-7 relative to conversion rate for Ang 1-10 to Ang 1-9 (ACE2): 65 times |
